From patent publication US8501733B2, “Spiroaminodihydrothiazine derivatives” (Eisai R&D Management Co., Ltd., priority 2008, dated 2013)

System: Aβ42
Experiment: Quantification of Aβ peptide in culture of neurons from rat fetus brain (Aβ ELISA)
Format: cell-based
Settings: Primary cortical neuron, 72 h, IC50 for decrease in the Aβ42 concentration in the medium, three days after addition of the compound, read-out: Aβ42 production reducing effect
Description: Quantification of Aβ Peptide in Culture of Neurons from Rat Fetus Brain
(1) Rat Primary Neuronal Culture
Primary neuronal cultures were prepared from the cerebral cortex of embryonic day 18 Wistar rats (Charles River Japan, Yokohama, Japan). Specifically, the embryos were aseptically removed from pregnant rats under ether anesthesia. The brain was isolated from the embryo and immersed in an ice-cold L-15 medium (such as Invitrogen Corp. Cat #11415-064, Carlsbad, Calif., USA, or SIGMA L1518). The cerebral cortex was collected from the isolated brain under a stereoscopic microscope. The cerebral cortex fragments collected were enzymatically treated in an enzyme solution containing 0.25% trypsin (Invitrogen Corp. Cat #15050-065, Carlsbad, Calif., USA) and 0.01% DNase (Sigma D5025, St. Louis, Mo., USA) at 37° C. for 30 minutes to disperse the cells. Here, the enzymatic reaction was stopped by adding inactivated horse serum to the solution. The enzymatically treated solution was centrifuged at 1,500 rpm for five minutes to remove the supernatant. 5 to 10 ml of a medium was added to the resulting cell mass. Neurobasal medium (Invitrogen Corp. Cat #21103-049, Carlsbad, Calif., USA) supplemented with 2% B27 supplement (Invitrogen Corp. Cat #17504-044, Carlsbad, Calif., USA), 25 μM 2-mercaptoethanol (2-ME, WAKO Cat #139-06861, Osaka, Japan), 0.5 mM L-glutamine (Invitrogen Corp. Cat #25030-081, Carlsbad, Calif., USA), and Antibiotics-Antimycotics (Invitrogen Corp. Cat #15240-062, Carlsbad, Calif., USA) was used as the medium (Neurobasal/B27/2-ME). However, the above Neurobasal medium not supplemented with 2-ME (Neurobasal/B27) was used for the assay. The cells were redispersed by mild pipetting of the cell mass to which the medium was added. The cell dispersion was filtered through a 40-μm nylon mesh (Cell Strainer, Cat #35-2340, Becton Dickinson Labware, Franklin Lakes, N.J., USA) to remove the remaining cell mass, and thus a neuronal cell suspension was obtained. The neuronal cell suspension was diluted with the medium and then plated in a volume of 100 μl/well at an initial cell density of 5×10^5 cells/cm^2 in a 96-well polystyrene culture plate pre-coated with poly-L or D-lysine (Falcon Cat #35-3075, Becton Dickinson Labware, Franklin Lakes, N.J., USA coated with poly-L-lysine using the method shown below, or BIOCOAT™ cell environments Poly-D-lysine cell ware 96-well plate, Cat #35-6461, Becton Dickinson Labware, Franklin Lakes, N.J., USA). Poly-L-lysine coating was carried out as follows. 100 μg/ml of a poly-L-lysine (SIGMA P2636, St. Louis, Mo., USA) solution was aseptically prepared with a 0.15 M borate buffer (pH 8.5). […] of the solution was added to the 96-well polystyrene culture plate and incubated at room temperature for one or more hours or at 4° C. overnight or longer. Thereafter, the coated 96-well polystyrene culture plate was washed with sterile water four or more times, and then dried or rinsed with, for example, sterile PBS or medium, and used for cell plating. The plated cells were cultured in the incubator at 37° C. in 5% CO2-95% air for one day. Then, the total amount of the medium was replaced with a fresh Neurobasal/B27/2-ME medium, and then the cells were cultured for further three days.
The drug was added to the culture plate on Day 4 of culture as follows. The total amount of the medium was removed from the wells, and 180 μl/well of Neurobasal medium not containing 2-ME and containing 2% B-27 (Neurobasal/B27) was added thereto. […]

Compound | IC50 [nM]
N#Cc1ccc(C(=O)Nc2ccc3c(c2)C2(CCO3)CCSC(N)=N2)nc1 (stereo not drawn) [Compound 11, (−)—N-(2′-amino-2,3,5′,6′-tetrahydrospiro[chromene-4,4′-[1,3]thiazin]-6-yl)-5-cyanopyridine-2-carboxamide] | 53
NC1=NC2(CCOc3ccc(NC(=O)c4ccc(C(F)(F)F)cn4)cc32)CCS1 (centres unmarked) [Compound 12, N-(2′-amino-2,3,5′,6′-tetrahydrospiro[chromene-4,4′-[1,3]thiazin]-6-yl)-5-trifluoromethylpyridine-2-carboxamide] | 71
NC1=NC2(CCOc3ccc(NC(=O)c4ncc(Br)cn4)cc32)CCS1 (centres unmarked) [Compound 15, N-(2′-amino-2,3,5′,6′-tetrahydrospiro[chromene-4,4′-[1,3]thiazin]-6-yl)-5-bromopyrimidine-2-carboxamide] | 63

Other lines, results leading:

IC50 [nM] | Compound
27 | NC1=NC2(CCOc3ccc(NC(=O)c4ccc(Br)cn4)cc32)CCS1 (centres unmarked) [Compound 16, N-(2′-amino-2,3,5′,6′-tetrahydrospiro[chromene-4,4′-[1,3]thiazin]-6-yl)-5-bromopyridine-2-carboxamide]
47 | NC1=NC2(CCOc3ccc(NC(=O)c4ncc(Cl)cc4Cl)cc32)CCS1 (centres unmarked) [Compound 18, N-(2′-amino-2,3,5′,6′-tetrahydrospiro[chromene-4,4′-[1,3]thiazin]-6-yl)-3,5-dichloropyridine-2-carboxamide]
